Data taken from patent US20210323977A1, “PYRROLIDINYL AMIDE COMPOUNDS FOR THE TREATMENT OF AUTOIMMUNE DISEASE” (Hoffmann-La Roche Inc., priority 2018, published 2021).

What follows are molecules tested against T1, human TLR7 (Homo sapiens, UniProt Q9NYK1) (assay: HEK293-Blue-hTLR-7 cells assay). Details: HEK293-Blue-hTLR7 cells, SEAP reporter, R848 stimulation, 20 hrs.
T1 sequence (Q9NYK1 27-1049): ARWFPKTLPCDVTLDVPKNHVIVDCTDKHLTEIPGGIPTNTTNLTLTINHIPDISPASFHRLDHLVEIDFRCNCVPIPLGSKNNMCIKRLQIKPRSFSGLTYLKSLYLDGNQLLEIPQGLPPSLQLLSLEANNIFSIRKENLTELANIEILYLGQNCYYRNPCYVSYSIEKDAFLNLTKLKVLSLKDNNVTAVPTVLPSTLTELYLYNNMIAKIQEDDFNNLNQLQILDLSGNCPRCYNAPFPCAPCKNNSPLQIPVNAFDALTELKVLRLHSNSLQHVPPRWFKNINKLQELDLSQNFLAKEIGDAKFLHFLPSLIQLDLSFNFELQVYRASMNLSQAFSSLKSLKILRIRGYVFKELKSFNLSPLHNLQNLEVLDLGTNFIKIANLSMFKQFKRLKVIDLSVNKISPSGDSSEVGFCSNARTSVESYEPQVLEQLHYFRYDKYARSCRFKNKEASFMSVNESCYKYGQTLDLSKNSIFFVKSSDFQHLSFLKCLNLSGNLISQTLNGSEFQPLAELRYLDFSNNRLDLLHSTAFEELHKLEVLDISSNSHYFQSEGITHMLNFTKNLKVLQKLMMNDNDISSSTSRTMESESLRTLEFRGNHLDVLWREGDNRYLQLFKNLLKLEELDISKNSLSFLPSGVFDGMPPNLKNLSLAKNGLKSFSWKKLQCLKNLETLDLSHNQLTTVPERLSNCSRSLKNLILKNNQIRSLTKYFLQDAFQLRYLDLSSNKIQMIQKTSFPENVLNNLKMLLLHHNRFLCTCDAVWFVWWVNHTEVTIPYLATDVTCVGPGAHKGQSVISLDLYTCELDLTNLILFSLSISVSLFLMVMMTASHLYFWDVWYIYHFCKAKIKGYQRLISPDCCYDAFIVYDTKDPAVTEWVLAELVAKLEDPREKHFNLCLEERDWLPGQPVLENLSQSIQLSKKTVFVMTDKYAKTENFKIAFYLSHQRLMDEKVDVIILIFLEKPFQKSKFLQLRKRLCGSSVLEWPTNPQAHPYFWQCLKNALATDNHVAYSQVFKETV
Type: cell-based
Source text: HEK293-Blue-hTLR-7 Cells Assay:
A stable HEK293-Blue-hTLR-7 cell line was purchased from InvivoGen (Cat. #: hkb-htlr7, San Diego, Calif., USA). These cells were originally designed for studying the stimulation of human TLR7 by monitoring the activation of NF-κB. A SEAP (secreted embryonic alkaline phosphatase) reporter gene was placed under the control of the IFN-β minimal promoter fused to five NF-κB and AP-1-binding sites. The SEAP was induced by activating NF-κB and AP-1 via stimulating HEK-Blue hTLR7 cells with TLR7 ligands. Therefore the reporter expression was declined by TLR7 antagonist under the stimulation of a ligand, such as R848 (Resiquimod), for incubation of 20 hrs. The cell culture supernatant SEAP reporter activity was determined using QUANTI-Blue™ kit (Cat. #: rep-qb1, Invivogen, San Diego, Ca, USA) at a wavelength of 640 nm, a detection medium that turns purple or blue in the presence of alkaline phosphatase.
HEK293-Blue-hTLR7 cells were incubated at a density of 250,000˜450,000 cells/mL in a volume of 170 μL in a 96-well plate in Dulbecco's Modified Eagle's medium (DMEM) containing 4.5 g/L glucose, 50 U/mL penicillin, […], […], 2 mM L-glutamine, 10% (v/v) heat-inactivated fetal bovine serum with addition of 20 sL test compound in a serial dilution in the presence of final DMSO at 1% and 10 μL of 20 uM R848 in above DMEM, perform incubation under 37° C. in a CO2 incubator for 20 hrs. Then 20 μL of the supernatant from each well was incubated with 180 sL Quanti-blue substrate solution at 37° C. for 2 hrs and the absorbance was read at 620-655 nm using a spectrophotometer. The signalling pathway that TLR7 activation leads to downstream NF-κB activation has been widely accepted, and therefore similar reporter assay was modified for evaluating TLR7 antagonist.

Question: Which IC50 does the source give for `CN1CCC(NC(=O)[C@@H]2CN(c3ccc(C#N)c4ncccc34)C[C@H]2C2CC2)CC1` (relative stereo) [Example 14, Trans-1-(8-cyano-5-quinolyl)-4-cyclopropyl-N-(1-methyl-4-piperidyl)pyrrolidine-3-carboxamide] here?
Answer: 20 nM

Question: For `CN1CCC(NC(=O)[C@@H]2CN(c3ccc(C#N)c4ncccc34)C[C@H]2C(F)(F)F)CC1` (relative stereo) [Example 17, Trans-1-(8-cyano-5-quinolyl)-N-(1-methyl-4-piperidyl)-4-(trifluoromethyl)pyrrolidine-3-carboxamide], which IC50 is on record?
Answer: 22 nM

Question: Which IC50 does the source give for `C[C@@H]1CN(c2ccc(C#N)c3ncccc23)C[C@H]1C(=O)NC1CCN(C)CC1` (relative stereo) [Example 28] here?
Answer: 39 nM

Question: How did the IC50 turn out when `CC[C@@H]1CN(c2ccc(C#N)c3ncccc23)C[C@H]1C(=O)NC1CCN(C)CC1` (relative stereo) [Example 29, Trans-1-(8-cyano-5-quinolyl)-4-ethyl-N-(1-methyl-4-piperidyl)pyrrolidine-3-carboxamide] was run?
Answer: 40 nM

Question: How did the IC50 turn out when `C[C@@H]1CN(c2ccc(C#N)c3ncccc23)C[C@H]1C(=O)N1CCC2(CCNCC2)CC1` (relative stereo) [Example 32, Trans-5-[3-(3,9-diazaspiro[5.5]undecane-3-carbonyl)-4-methyl-pyrrolidin-1-yl]quinoline-8-carbonitrile] was run?
Answer: 44 nM

Question: How did the IC50 turn out when `CC(C)[C@@H]1CN(c2ccc(C#N)c3ncccc23)C[C@H]1C(=O)NC1CCN(C)CC1` (relative stereo) [Example 37, Trans-1-(8-cyano-5-quinolyl)-4-isopropyl-N-(1-methyl-4-piperidyl)pyrrolidine-3-carboxamide] was run?
Answer: 59 nM

Question: For `CN1CCC(NC(=O)[C@@H]2CN(c3ccc(C#N)c4ncccc34)C[C@H]2C(F)F)CC1` (relative stereo) [Example 40, Trans-1-(8-cyano-5-quinolyl)-4-(difluoromethyl)-N-(1-methyl-4-piperidyl)pyrrolidine-3-carboxamide], which IC50 is on record?
Answer: 79 nM

Question: For `N[C@@H]1CCC[C@H](NC(=O)C2CN(c3ccc(C(F)(F)F)c4nccnc34)CC23CC3)C1` (relative stereo) [Example 43, Cis-N-(3-aminocyclohexyl)-5-[8-(trifluoromethyl)quinoxalin-5-yl]-5-azaspiro[2.4]heptane-7-carboxamide], which IC50 is on record?
Answer: 81 nM

Question: With `CN1CCC(NC(=O)[C@@H]2CN(c3ccc(Cl)c4ncccc34)C[C@H]2C(F)(F)F)CC1` (relative stereo) [Example 46, Trans-1-(8-chloro-5-quinolyl)-N-(1-methyl-4-piperidyl)-4-(trifluoromethyl)pyrrolidine-3-carboxamide] as the molecule, how does the IC50 read?
Answer: 108 nM

Question: For `C[C@@H]1CN(c2ccc(C#N)c3ncccc23)C[C@H]1C(=O)N1CCC2(CCNC2)C1` (relative stereo) [Example 53, Trans-5-[3-(2,7-diazaspiro[4.4]nonane-2-carbonyl)-4-methyl-pyrrolidin-1-yl]quinoline-8-carbonitrile], which IC50 is on record?
Answer: 226 nM

Question: How did the IC50 turn out when `CN1CCC(NC(=O)C2CN(c3ccc(C#N)c4nccnc34)CC23CC3)CC1` (single isomer, unassigned) [Example 7A, 5-(8-Cyanoquinoxalin-5-yl)-N-(1-methyl-4-piperidyl)-5-azaspiro[2.4]heptane-7-carboxamide] was run?
Answer: 4 nM

Question: How did the IC50 turn out when `CN1CCC(NC(=O)C2CN(c3ccc(C#N)c4nccnc34)CC23CC3)CC1` (single isomer, unassigned) [Example 7B, 5-(8-Cyanoquinoxalin-5-yl)-N-(1-methyl-4-piperidyl)-5-azaspiro[2.4]heptane-7-carboxamide] was run?
Answer: 6 nM

Question: Which IC50 does the source give for `N#Cc1ccc(N2CC(C(=O)NC3CCCNCC3)C(C(F)(F)F)C2)c2cccnc12` (single isomer, unassigned) [Example 30A, N-(azepan-4-yl)-1-(8-cyano-5-quinolyl)-4-(trifluoromethyl)pyrrolidine-3-carboxamide] here?
Answer: 41 nM

Question: `N#Cc1ccc(N2CC(C(=O)NC3CCCNCC3)C(C(F)(F)F)C2)c2cccnc12` (single isomer, unassigned) [Example 30B, N-(azepan-4-yl)-1-(8-cyano-5-quinolyl)-4-(trifluoromethyl)pyrrolidine-3-carboxamide] was tested. Which IC50 did it give?
Answer: 50 nM

Question: `CN1CCC(NC(=O)C2CN(c3ccc(C#N)c4ncccc34)CC23CC3)CC1` (single isomer, unassigned) [Example 41A, 5-(8-Cyano-5-quinolyl)-N-(1-methyl-4-piperidyl)-5-azaspiro[2.4]heptane-7-carboxamide] was tested. Which IC50 did it give?
Answer: 79 nM

Question: For `C[C@@H]1CN(c2ccc(C#N)c3ncccc23)C[C@H]1C(=O)NC1CCCNCC1` (single isomer, unassigned) [Example 52A, Trans-N-(azepan-4-yl)-1-(8-cyano-5-quinolyl)-4-methyl-pyrrolidine-3-carboxamide], which IC50 is on record?
Answer: 203 nM

Question: With `C[C@@H]1CN(c2ccc(C#N)c3ncccc23)C[C@H]1C(=O)NC1CCCNCC1` (single isomer, unassigned) [Example 52B, Trans-N-(azepan-4-yl)-1-(8-cyano-5-quinolyl)-4-methyl-pyrrolidine-3-carboxamide] as the molecule, how does the IC50 read?
Answer: 219 nM

Question: With `N#Cc1ccc(N2CC(C(=O)NC[C@H]3CNCCO3)C3(CC3)C2)c2nccnc12` (single isomer, unassigned) [Example 70A] as the molecule, how does the IC50 read?
Answer: 19 nM

Question: With `N#Cc1ccc(N2CC(C(=O)NC[C@H]3CNCCO3)C3(CC3)C2)c2nccnc12` (single isomer, unassigned) [Example 70B] as the molecule, how does the IC50 read?
Answer: 233 nM

Question: How did the IC50 turn out when `N#Cc1ccc(N2CC(C(=O)NC[C@@H]3CNCCO3)C3(CC3)C2)c2nccnc12` (single isomer, unassigned) [Example 71A] was run?
Answer: 21 nM

Question: `N#Cc1ccc(N2CC(C(=O)NC[C@@H]3CNCCO3)C3(CC3)C2)c2nccnc12` (single isomer, unassigned) [Example 71B] was tested. Which IC50 did it give?
Answer: 202 nM

Question: `CN1CCC(NC(=O)[C@H]2CN(c3ccc(C#N)c4nccnc34)C[C@@H]2C(F)(F)F)CC1` [Example 1, (3R,4R)-1-(8-cyanoquinoxalin-5-yl)-N-(1-methyl-4-piperidyl)-4-(trifluoromethyl) pyrrolidine-3-carboxamide] was tested. Which IC50 did it give?
Answer: 3 nM

Question: For `CN1CCC(NC(=O)[C@H]2CN(c3ccc(C(F)(F)F)c4nccnc34)C[C@@H]2C(F)(F)F)CC1` [Example 2, (3R,4R)—N-(1-methyl-4-piperidyl)-4-(trifluoromethyl)-1-[8-(trifluoromethyl)quinoxalin-5-yl]pyrrolidine-3-carboxamide], which IC50 is on record?
Answer: 4 nM

Question: Which IC50 does the source give for `C[C@H]1CN(c2ccc(C#N)c3nccnc23)C[C@@H]1C(=O)NC1CCN(C)CC1` [Example 3, (3R,4R)-1-(8-cyanoquinoxalin-5-yl)-4-methyl-N-(1-methyl-4-piperidyl)pyrrolidine-3-carboxamide] here?
Answer: 4 nM

Question: How did the IC50 turn out when `CN1CCC(NC(=O)[C@H]2CN(c3ccc(C#N)c4ncccc34)C[C@@H]2C(F)(F)F)CC1` [Example 4, (3R,4R)-1-(8-cyano-5-quinolyl)-N-(1-methyl-4-piperidyl)-4-(trifluoromethyl)pyrrolidine-3-carboxamide] was run?
Answer: 9 nM

Question: With `C[C@H]1CN(c2ccc(C(F)(F)F)c3nccnc23)C[C@@H]1C(=O)NC1CCN(C)CC1` [Example 5, (3R,4R)-4-methyl-N-(1-methyl-4-piperidyl)-1-[8-(trifluoromethyl)quinoxalin-5-yl]pyrrolidine-3-carboxamide] as the molecule, how does the IC50 read?
Answer: 8 nM
